Each block holds one compound with its values, some of them ahead of it. The source made the active and inactive calls.
What was measured:
[1] = molecular target: T1, G-protein coupled receptor 55 (Homo sapiens, UniProt Q9Y2T6); experiment: selective activators of receptor GPR55 – imaging, U2OS cells, beta-arrestin-GFP redistribution, primary screen (AID 1961); assay type: functional
Cannabinoid receptor 2 [2] = molecular target: T2, Cannabinoid receptor 2 (Homo sapiens, UniProt P34972); experiment: SAR analysis of antagonists of the Cannabinoid Receptor 2 using an Image-Based Assay - Set 2. [Related pubchem assays (depositor defined):AID1961, AID1965]; assay type: functional
Cannabinoid receptor 2 [3] = molecular target: T2, Cannabinoid receptor 2; experiment: SAR analysis of agonists of the Cannabinoid Receptor 2 using an Image-Based Assay - Set 2. [Related pubchem assays (depositor defined):AID1961, AID1965]; assay type: functional
[4] = molecular target: T3, Tyrosine-protein phosphatase non-receptor type 7 (Homo sapiens, UniProt P35236); experiment: SAR analysis of chemical inhibitors of HePTP using a Fluorescent assay - Set 2. [Related pubchem assays (depositor defined):AID1059, AID1077, AID1661, AID2085, AID521]; assay type: functional
T3 sequence (P35236 whole entry): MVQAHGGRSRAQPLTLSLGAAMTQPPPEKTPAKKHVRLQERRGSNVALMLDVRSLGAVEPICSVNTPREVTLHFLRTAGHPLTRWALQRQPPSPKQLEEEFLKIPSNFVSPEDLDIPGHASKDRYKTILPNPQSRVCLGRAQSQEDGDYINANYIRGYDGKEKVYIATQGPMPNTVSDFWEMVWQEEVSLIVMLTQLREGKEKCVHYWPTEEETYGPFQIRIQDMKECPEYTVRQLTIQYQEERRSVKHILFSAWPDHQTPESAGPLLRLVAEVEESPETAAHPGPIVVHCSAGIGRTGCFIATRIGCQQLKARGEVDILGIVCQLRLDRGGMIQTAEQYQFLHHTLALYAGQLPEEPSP

[5] = molecular target: T1, G-protein coupled receptor 55; experiment: SAR analysis of selective Agonists of GPR55 using an Image-Based Assay. [Related pubchem assays (depositor defined):AID1961, AID1965]; assay type: functional
Cannabinoid receptor 1 = Cannabinoid receptor 1 (Homo sapiens, UniProt P21554); experiment: SAR analysis of antagonists of the Cannabinoid Receptor 1 using an Image-Based Assay. [Related pubchem assays (depositor defined):AID1961, AID1965]; assay type: functional
[6] = molecular target: Dual specificity protein phosphatase 3 (Homo sapiens, UniProt P51452); experiment: SAR VHR1 Fluorescent Assay for In Vitro dose response studies Set 2. [Related pubchem assays (depositor defined):AID1654, AID1661, AID1878]; assay type: functional
[7] = molecular target: Sphingosine 1-phosphate receptor 1 (Homo sapiens, UniProt P21453); experiment: Fluorescence-based counterscreen assay for S1P4 agonists: Cell-based dose response high throughput screening assay to identify agonists of the Sphingosine 1-Phosphate Receptor 1 (S1P1). [Related pubchem assays (depositor defined):AID1509, AID1523, AID1801, AID463107, AID463118, AID463119, AID463122, AID463123, AID463129, AID463225, AID504400, AID504460]; assay type: functional
[8] = HPDE-C7 pancreatic duct cell viability loss – fluorescence, HTS (AID 430); assay type: functional, cell-based; conditions: Homo sapiens
[9] = viability loss of HPDE-C7K cells – cell-based, fluorescence, HTS, primary screen (AID 431); assay type: functional; conditions: Homo sapiens
[10] = molecular target: Sphingosine 1-phosphate receptor 4 (Homo sapiens, UniProt O95977); experiment: Fluorescence dose response cell-based high throughput screening assay for agonists of the Sphingosine 1-Phosphate Receptor 4 (S1P4). [Related pubchem assays: 1509 (Primary screen.), 1523 (Confirmation screen in triplicates.)]; assay type: functional
[11] = molecular target: Sphingosine 1-phosphate receptor 2 (Homo sapiens, UniProt O95136); experiment: Dose Response Cell Based Assay for Agonists of the S1P2 Receptor. [Related pubchem assays: 729, 736, 843 ]; assay type: functional
[12] = molecular target: T4, Short transient receptor potential channel 4 (Mus musculus, UniProt Q9QUQ5); experiment: calcium entry via TRPC4 opening agents – cell-based, HEK293 TRPC4/mu-opioid, Fluo-4 calcium, dose response (AID 434937); assay type: functional
T4 sequence (Q9QUQ5 whole entry): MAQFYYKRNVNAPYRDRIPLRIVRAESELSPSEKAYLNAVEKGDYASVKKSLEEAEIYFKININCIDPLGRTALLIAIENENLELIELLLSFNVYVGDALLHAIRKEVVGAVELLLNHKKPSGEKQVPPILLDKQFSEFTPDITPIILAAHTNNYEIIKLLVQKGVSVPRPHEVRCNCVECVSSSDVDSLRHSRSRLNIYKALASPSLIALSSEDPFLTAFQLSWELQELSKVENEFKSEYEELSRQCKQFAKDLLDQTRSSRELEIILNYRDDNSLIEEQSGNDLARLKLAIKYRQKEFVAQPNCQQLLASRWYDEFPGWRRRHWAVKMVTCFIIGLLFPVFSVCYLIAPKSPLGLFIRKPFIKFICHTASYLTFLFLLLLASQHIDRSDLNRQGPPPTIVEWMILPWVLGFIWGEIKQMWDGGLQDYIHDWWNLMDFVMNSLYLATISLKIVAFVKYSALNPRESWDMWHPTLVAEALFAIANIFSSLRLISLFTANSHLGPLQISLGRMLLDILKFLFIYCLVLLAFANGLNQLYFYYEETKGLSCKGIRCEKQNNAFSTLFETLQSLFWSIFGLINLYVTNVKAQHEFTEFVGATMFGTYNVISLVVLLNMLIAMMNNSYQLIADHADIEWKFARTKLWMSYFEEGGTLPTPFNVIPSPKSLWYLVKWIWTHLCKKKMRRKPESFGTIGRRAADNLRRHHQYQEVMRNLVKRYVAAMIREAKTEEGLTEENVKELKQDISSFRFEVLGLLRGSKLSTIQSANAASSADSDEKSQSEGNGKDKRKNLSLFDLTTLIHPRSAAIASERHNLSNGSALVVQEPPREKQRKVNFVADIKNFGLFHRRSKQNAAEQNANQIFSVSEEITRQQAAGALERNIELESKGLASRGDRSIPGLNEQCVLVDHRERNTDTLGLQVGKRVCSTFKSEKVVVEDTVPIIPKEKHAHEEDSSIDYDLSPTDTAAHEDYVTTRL

[13] = molecular target: Lysine-specific demethylase 4A (Homo sapiens, UniProt O75164); experiment: inhibition of JMJD2A H3K9me3 demethylation – biochemical, DELFIA europium, cherry-picked samples, selectivity assay for GASC-1 inhibitor project, dose response (AID 488840)
[14] = molecular target: T5, Kappa-type opioid receptor (Homo sapiens, UniProt P41145); experiment: kappa opioid receptor activation by imaging – image-based, set 3, SAR follow-up (AID 488833); assay type: functional
Mu-type opioid receptor = Mu-type opioid receptor (Homo sapiens, UniProt P35372); experiment: SAR Analysis of Agonists of the MOR Receptor using an Image-Based Assay - Set 3. [Related pubchem assays (depositor defined):AID1777, AID1785, AID1786, AID1966, AID2133, AID2136, AID2284, AID2285, AID2352]; assay type: functional
[15] = molecular target: Delta-type opioid receptor (Homo sapiens, UniProt P41143); experiment: SAR Analysis of Agonists of the DOR Receptor using an Image-Based Assay - Set 3. [Related pubchem assays (depositor defined):AID1777, AID1786]; assay type: functional
[16] = molecular target: T5, Kappa-type opioid receptor; experiment: SAR analysis of small molecule agonists of the kappa opioid receptor via a luminescent beta-arrestin assay - Set 3. [Related pubchem assays (depositor defined):AID1777, AID1785, AID1786, AID1966, AID2133, AID2136, AID2284, AID2500]; assay type: functional
[17] = molecular target: Intestinal-type alkaline phosphatase (Mus musculus, UniProt P24822); experiment: PubChem AID 488785; assay type: functional
Hexokinase HKDC1 = molecular target: T6, Hexokinase HKDC1 (Homo sapiens, UniProt Q2TB90); experiment: inhibition of HKDC1 glucose phosphorylation – biochemical, W721R variant, dose response (AID 504729); assay type: functional
T6 sequence (Q2TB90 whole entry): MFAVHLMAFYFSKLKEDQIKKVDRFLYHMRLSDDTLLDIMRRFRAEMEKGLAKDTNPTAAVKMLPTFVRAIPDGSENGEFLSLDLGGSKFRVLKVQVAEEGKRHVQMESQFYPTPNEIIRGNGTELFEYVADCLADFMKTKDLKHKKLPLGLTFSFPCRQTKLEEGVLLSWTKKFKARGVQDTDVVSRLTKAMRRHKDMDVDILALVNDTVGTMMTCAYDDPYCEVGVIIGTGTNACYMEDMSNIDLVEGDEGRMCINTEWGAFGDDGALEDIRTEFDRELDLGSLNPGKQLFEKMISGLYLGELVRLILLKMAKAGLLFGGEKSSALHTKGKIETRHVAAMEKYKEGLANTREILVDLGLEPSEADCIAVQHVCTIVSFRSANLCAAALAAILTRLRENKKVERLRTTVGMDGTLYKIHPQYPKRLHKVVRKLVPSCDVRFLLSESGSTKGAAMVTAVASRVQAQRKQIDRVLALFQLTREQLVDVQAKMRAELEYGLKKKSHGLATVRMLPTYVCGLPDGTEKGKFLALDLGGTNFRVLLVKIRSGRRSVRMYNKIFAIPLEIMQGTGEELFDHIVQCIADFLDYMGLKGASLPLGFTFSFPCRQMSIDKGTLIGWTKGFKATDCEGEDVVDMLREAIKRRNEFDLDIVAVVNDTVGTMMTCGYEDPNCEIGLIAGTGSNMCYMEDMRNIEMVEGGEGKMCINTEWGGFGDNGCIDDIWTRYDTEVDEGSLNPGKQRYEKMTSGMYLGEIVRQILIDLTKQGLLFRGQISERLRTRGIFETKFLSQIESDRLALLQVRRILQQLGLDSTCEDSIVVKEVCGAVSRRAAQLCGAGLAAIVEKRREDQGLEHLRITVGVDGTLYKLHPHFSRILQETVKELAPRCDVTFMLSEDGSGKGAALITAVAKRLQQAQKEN

[18] = molecular target: T7, Alkaline phosphatase, tissue-nonspecific isozyme (Homo sapiens, UniProt P05186); experiment: TNAP enzyme inhibition by screening hits, dose response, selectivity assay for mouse IAP inhibitor project, biochemical, human TNAP, uHTS hits (AID 488906); assay type: functional
T7 sequence (P05186 whole entry): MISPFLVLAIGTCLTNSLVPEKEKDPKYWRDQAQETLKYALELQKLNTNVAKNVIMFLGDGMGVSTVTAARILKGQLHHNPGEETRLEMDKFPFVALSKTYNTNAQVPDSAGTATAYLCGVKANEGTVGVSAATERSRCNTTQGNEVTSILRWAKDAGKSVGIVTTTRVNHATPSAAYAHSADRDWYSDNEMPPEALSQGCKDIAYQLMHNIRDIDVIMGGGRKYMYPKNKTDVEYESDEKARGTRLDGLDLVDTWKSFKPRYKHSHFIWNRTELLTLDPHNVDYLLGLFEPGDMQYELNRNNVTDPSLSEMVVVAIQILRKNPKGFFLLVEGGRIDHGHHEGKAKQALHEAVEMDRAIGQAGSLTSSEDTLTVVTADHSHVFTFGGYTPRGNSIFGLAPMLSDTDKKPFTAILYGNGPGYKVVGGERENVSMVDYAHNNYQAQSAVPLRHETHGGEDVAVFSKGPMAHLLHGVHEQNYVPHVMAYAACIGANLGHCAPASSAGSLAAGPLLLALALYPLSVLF

[19] = molecular target: Intestinal-type alkaline phosphatase (Homo sapiens, UniProt P09923); experiment: inhibition of human intestinal alkaline phosphatase – biochemical, dose response (AID 488876); assay type: functional
Intestinal-type alkaline phosphatase (Homo sapiens, UniProt P09923), sequence (P09923 whole entry): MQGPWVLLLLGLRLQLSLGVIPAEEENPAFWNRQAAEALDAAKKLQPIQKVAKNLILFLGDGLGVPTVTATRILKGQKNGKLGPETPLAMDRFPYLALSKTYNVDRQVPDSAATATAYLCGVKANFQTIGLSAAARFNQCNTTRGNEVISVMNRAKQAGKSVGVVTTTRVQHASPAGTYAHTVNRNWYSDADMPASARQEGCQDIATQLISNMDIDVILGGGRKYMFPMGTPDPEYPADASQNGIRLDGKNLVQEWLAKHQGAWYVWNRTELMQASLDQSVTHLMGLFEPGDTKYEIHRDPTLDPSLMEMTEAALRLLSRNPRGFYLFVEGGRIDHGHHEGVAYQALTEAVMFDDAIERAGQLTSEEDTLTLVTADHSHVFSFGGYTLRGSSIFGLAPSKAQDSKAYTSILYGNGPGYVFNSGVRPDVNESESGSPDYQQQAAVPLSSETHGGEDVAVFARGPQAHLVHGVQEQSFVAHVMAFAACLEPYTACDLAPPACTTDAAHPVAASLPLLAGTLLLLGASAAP

T5 sequence (P41145 whole entry): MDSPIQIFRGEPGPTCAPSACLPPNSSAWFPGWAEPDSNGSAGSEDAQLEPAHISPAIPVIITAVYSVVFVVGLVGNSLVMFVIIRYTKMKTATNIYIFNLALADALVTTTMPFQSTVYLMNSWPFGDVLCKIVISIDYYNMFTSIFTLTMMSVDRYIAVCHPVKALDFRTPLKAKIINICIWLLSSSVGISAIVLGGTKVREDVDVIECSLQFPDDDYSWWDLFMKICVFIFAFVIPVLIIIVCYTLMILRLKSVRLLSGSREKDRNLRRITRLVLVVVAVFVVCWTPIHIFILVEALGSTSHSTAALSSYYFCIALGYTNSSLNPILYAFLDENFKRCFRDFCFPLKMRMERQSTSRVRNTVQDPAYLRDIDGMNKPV
T1 sequence (Q9Y2T6 whole entry): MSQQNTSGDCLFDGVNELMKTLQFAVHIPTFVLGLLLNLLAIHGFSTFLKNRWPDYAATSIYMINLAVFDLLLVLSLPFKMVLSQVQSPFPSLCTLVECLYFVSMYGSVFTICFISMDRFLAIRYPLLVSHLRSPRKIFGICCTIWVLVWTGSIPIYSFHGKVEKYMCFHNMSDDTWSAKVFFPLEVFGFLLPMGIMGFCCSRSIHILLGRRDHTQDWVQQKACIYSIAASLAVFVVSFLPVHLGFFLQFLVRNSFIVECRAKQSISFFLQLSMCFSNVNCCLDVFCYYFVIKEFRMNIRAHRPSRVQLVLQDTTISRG
T2 sequence (P34972 whole entry): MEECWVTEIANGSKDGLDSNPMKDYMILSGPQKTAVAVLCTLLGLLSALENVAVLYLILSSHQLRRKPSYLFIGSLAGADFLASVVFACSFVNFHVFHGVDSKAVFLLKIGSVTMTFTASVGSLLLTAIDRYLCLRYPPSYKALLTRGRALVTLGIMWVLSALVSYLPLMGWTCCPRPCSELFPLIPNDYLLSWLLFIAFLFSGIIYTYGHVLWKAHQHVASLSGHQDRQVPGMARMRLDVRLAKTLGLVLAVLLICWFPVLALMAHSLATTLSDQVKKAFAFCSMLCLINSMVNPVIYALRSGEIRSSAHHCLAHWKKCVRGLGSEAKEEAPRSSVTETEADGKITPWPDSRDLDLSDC
Sphingosine 1-phosphate receptor 4, sequence (O95977 whole entry): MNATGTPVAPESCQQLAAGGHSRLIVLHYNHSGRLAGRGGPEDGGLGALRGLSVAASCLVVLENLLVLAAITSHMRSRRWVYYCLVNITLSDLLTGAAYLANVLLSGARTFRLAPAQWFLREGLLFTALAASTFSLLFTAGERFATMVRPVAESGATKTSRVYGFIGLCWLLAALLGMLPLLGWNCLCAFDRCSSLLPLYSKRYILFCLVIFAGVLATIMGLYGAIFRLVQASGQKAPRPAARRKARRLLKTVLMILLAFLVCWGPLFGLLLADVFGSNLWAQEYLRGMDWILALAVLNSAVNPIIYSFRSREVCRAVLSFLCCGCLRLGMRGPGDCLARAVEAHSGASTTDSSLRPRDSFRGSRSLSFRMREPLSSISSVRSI
Dual specificity protein phosphatase 3, sequence (P51452 whole entry): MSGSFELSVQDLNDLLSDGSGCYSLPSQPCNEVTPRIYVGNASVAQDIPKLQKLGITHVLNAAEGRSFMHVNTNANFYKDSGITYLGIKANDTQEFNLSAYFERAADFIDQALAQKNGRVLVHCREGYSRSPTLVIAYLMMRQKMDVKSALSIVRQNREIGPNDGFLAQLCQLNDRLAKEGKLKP
Lysine-specific demethylase 4A, sequence (O75164 whole entry): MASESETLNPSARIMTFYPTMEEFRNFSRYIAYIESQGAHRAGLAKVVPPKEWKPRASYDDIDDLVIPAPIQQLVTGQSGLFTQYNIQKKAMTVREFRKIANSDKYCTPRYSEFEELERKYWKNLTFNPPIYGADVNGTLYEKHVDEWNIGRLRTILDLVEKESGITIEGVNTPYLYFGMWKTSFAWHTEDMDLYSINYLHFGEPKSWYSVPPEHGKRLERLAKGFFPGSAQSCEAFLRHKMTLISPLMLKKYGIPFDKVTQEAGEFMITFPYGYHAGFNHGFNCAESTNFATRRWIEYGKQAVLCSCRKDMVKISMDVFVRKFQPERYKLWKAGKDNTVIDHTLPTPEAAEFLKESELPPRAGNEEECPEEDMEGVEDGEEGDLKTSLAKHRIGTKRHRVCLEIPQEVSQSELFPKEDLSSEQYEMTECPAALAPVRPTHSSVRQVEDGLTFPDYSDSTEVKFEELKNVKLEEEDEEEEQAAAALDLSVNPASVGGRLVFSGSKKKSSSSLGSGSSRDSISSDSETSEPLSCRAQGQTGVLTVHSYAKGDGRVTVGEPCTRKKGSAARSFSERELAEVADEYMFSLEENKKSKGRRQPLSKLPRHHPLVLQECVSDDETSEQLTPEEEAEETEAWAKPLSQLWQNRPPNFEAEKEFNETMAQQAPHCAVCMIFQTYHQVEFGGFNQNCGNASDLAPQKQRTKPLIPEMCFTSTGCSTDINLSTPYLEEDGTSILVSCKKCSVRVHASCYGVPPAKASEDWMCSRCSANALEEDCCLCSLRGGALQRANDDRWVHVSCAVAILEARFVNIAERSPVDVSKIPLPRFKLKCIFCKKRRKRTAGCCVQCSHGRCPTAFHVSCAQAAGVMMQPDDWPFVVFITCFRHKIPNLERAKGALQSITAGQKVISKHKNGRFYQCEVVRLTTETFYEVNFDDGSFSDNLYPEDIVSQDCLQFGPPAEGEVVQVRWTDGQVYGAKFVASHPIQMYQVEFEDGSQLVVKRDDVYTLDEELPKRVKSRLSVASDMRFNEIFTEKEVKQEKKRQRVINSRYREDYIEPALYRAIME
Mu-type opioid receptor, sequence (P35372 whole entry): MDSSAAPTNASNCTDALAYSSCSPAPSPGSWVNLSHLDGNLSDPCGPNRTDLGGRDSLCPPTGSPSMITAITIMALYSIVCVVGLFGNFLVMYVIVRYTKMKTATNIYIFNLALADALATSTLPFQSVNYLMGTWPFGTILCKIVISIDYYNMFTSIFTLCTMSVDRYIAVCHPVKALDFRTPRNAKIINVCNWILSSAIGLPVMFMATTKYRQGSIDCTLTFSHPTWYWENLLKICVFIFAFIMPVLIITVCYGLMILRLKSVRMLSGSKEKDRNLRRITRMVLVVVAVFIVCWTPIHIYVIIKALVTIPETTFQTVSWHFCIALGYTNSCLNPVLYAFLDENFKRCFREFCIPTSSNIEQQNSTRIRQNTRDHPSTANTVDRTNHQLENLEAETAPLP
Delta-type opioid receptor, sequence (P41143 whole entry): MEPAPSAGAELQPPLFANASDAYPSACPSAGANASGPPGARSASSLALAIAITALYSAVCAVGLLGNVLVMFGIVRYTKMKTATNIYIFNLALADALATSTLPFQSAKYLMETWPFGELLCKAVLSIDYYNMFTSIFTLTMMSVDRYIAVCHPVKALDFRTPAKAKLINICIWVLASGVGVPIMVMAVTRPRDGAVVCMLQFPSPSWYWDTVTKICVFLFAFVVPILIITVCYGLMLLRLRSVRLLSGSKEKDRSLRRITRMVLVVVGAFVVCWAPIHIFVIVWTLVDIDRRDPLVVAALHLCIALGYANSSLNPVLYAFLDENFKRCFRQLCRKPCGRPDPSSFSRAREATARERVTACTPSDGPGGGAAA
Cannabinoid receptor 1, sequence (P21554 whole entry): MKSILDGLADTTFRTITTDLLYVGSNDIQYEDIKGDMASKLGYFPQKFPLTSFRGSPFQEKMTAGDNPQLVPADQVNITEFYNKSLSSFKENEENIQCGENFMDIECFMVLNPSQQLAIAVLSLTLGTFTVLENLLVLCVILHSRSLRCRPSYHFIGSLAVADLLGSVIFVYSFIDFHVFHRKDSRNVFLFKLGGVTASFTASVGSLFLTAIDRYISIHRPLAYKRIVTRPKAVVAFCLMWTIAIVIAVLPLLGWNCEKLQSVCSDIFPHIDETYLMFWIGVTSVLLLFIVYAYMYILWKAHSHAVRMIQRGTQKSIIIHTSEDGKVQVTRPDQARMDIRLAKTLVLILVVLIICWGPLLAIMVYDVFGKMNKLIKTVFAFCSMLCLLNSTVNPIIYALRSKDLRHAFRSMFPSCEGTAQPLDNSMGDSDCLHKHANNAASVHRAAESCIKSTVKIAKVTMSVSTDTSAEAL
Sphingosine 1-phosphate receptor 2, sequence (O95136 whole entry): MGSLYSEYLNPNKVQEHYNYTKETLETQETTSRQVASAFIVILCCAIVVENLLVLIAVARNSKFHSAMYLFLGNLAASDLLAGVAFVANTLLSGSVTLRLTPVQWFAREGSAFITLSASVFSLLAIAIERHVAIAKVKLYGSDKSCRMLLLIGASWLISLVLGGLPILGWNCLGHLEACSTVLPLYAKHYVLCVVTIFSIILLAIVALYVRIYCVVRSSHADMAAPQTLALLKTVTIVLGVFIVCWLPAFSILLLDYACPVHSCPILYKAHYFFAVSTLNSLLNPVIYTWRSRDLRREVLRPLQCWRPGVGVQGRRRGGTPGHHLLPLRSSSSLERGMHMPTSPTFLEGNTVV

Structure (SMILES): C=CCN(CC=C)S(=O)(=O)c1ccc(NC(=S)NC(=O)c2ccc(-c3ccccc3)cc2)cc1
EC50 [1]: < 0.5 µM (active)
IC50 (Cannabinoid receptor 2 [2]): > 32 µM (inactive)
EC50 (Cannabinoid receptor 2 [3]): > 32 µM (inactive)
IC50 [4]: > 100 µM (inactive)
EC50 [5]: 0.2 µM (active)
IC50 (Cannabinoid receptor 1): > 32 µM (inactive)
IC50 [6]: > 100 µM (inactive)

Structure (SMILES): Clc1ccc2nc(N3CCNCC3)nc(-c3ccccc3)c2c1
EC50 [7]: > 49.8 µM (inactive)
EC50 [8]: 8.03 µM (active)
EC50 [9]: 4.64 µM (active)
EC50 [10]: > 49.8 µM (not active)
EC50 [11]: 1.34 µM (active)
EC50 [12]: 5.96 µM (active)

Structure (SMILES): NS(=O)(=O)c1ccc(N/N=C2\C(=O)Nn3c2nc2c(c3=O)CCCC2)cc1
IC50 [17]: 9.28 µM (active)
IC50 (Hexokinase HKDC1): 13.2 µM (active)
IC50 [18]: 21.2 µM (active)
IC50 [19]: 23.6 µM (active)

Other lines, results leading:

AC50 [13]: 3.73 µM (active)
Structure (SMILES): CCC(C(=O)NCCCc1ccccc1)c1ccccc1 (configuration not stated)

EC50 [14]: 3.52 µM (active)
EC50 (Mu-type opioid receptor): > 32 µM (inactive)
EC50 [15]: > 64 µM (inactive)
EC50 [16]: 4.64 µM (active)
Structure (SMILES): N#Cc1ccc(CSc2nnc(-c3ccccn3)n2Cc2cccs2)cc1
